Experimental findings from patent US20250276972A1, “COMPOUNDS AS CASEIN KINASE INHIBITORS” (GRITSCIENCE BIOPHARMACEUTICALS CO.,LTD., priority 2020, published 2025) are described below.

Molecules are shown by their SMILES.

For one series, the target named is wild type CK1δ (Homo sapiens, UniProt P48730). Briefly: CK1δ kinase assay (Kinase-Glo). Conditions: 10 μM ATP, 2 nM wild type CK1δ, 85 min at 25° C. In kind it is biochemical. The method, then:
The reaction mixture was incubated for 85 min at 25° C.; detection was carried out as described for the Kinase-Glo Assay (Promega). Luminescent output was measured on the Perkin Elmer Envision plate reader (PerkinElmer, Waltham, MA).
(In general: Kinase-Glo measures the ATP left after a reaction by luminescence.)

For the next series, the target named is T1, CK1δ (Homo sapiens, UniProt P48730).
T1 construct: endogenous in cells; host or cells: Bmal1-dLuc or Per2-dLuc U2OS cells
Put plainly: CK1δ inhibition (EC50); Bmal1-dLuc or Per2-dLuc U2OS luminescence rhythm period assay. In kind it is cell-based. The following applies: Table 3. The method, then: Bmall-dLuc or Per2-dLuc U2OS cells were suspended in the culture medium (DMEM supplemented with 10% fetal bovine serum, 0.29 mg/mL L-glutamine, 100 units/mL penicillin, and […] streptomycin) and plated onto 96-well white solid-bottom plates at 200 μL (10,000 cells) per well. After 2 days, 100 μL of the explant medium (DMEM supplemented with 2% B27, 10 mM HEPES, 0.38 mg/mL sodium bicarbonate, 0.29 mg/mL L-glutamine, 100 units/mL penicillin, […], 0.1 mg/mL gentamicin, and 1 mM luciferin, pH 7.2) was dispensed to each well, followed by the application of 1 μL of a compound of the present application (dissolved in DMSO; final concentration was 0.7% in DMSO). The plate was covered with an optically clear film and set to microplate reader (Infinite M200, Tecan).

A further series can be described thus: in vitro. The following applies: human, Caco-2, pH 7.4. As for the experimental part:
Cells were cultivated for 14-18 days in a cell culture incubator at 37° C., 5% CO2, 95% relative humidity. Cell culture medium was replaced every other day, beginning no later than 24 hours after initial plating.
10 mM stock solutions of test compounds were prepared in DMSO. The stock solutions of positive controls were prepared in DMSO at the concentration of 10 mM.
125 μL of 5 μM working solution of control compound and test compounds were added to the Transwell insert (apical compartment), and transfer 50 μL sample (DO sample) immediately from the apical compartment to a new 96-well plate. […] 285 μL of 5 μM working solution of control compound and test compounds were to the receiver plate wells (basolateral compartment), and transfer 50 μL sample (DO sample) immediately from the basolateral compartment to a new 96-well plate. Fill the wells in the Transwell insert (apical compartment) with 75 μL of HBSS (10 mM HEPES, pH 7.4). […] Samples were Vortexed for 5 minutes and then centrifuged at 3,220 g for 40 minutes. […] 100 μL of the Lucifer yellow solution was added to each Transwell insert (apical compartment), followed by filling the wells in the receiver plate (basolateral compartment) with 300 μL of HBSS (10 mM HEPES, pH 7.4). The plates were Incubated at 37° C. for 30 mins. 80 μL samples were removed directly from the apical and basolateral wells (using the basolateral access holes) and transferred to wells of new 96 wells plates. The Lucifer Yellow fluorescence (to monitor monolayer integrity) signal was measured in a fluorescence plate reader at 485 nm excitation and 530 nm emission.
The apparent permeability coefficient (Papp), in units of centimeter per second, can be calculated for Caco-2 drug transport assays using the following equation: […]

A short description of series [1]: Intrinsic clearance in liver microsomes (human). Conditions: Human liver microsomes 0.5 mg/mL, 2 μM compound, 37° C. It counts as in vitro ADME. The method, then:
(§1) • 1. The master solution was prepared according to Table 5.
(§2) • 2. Three separated experiments were performed as follows. a) With NADPH: 10 μL of 20 mg/mL liver microsomes and 40 μL of 10 mM NADPH were added to the incubations. The final concentrations of microsomes and NADPH were 0.5 mg/mL and 1 mM, respectively. b) Without NADPH: 10 μL of 20 mg/mL liver microsomes and 40 μL of ultra-pure H2O were added to the incubations. The final concentration of microsomes was 0.5 mg/mL. c) Heat-inactivated microsomes without NADPH: 10 μL of 20 mg/mL heat-inactivated liver microsomes and 40 μL of ultra-pure H2O were added to the incubations. The final concentration of microsomes was 0.5 mg/mL. • 3. The reaction was started with the addition of 4 μL of 200 μM test compound solution or control compound solution at the final concentration of 2 μM and carried out at 37° C. • 4. Aliquots of 50 μL were taken from the reaction solution at 0, 15, 30, 45 and 60 min. […] Samples were centrifuged at 3, 220 g for 40 minutes. […] Data Analysis
(§3) Peak areas were determined from extracted ion chromatograms. The slope value, k, was determined by linear regression of the natural logarithm of the remaining percentage of the parent drug vs. incubation time curve.
(§4) The in vitro half-life (in vitro t1/2) was determined from the slope value:
(§5) Conversion of the in vitro t1/2 (min) into the in vitro intrinsic clearance (in vitro CLint, in μL/min/mg protein) was done using the following equation (mean of duplicate determinations): […]
Background: Liver microsomes are a subcellular fraction often used to study metabolism.

Series [2] in a line: Intrinsic clearance in liver microsomes (mouse). In kind it is in vitro ADME. Conditions: Mouse liver microsomes 0.5 mg/mL, 2 μM compound, 37° C. The method, then:
as §1, §2, §3, §4, §5

[3] abbreviates: read-out: in vitro CLint (μL/min/mg protein).

Chain of wild type CK1δ (P48730 whole entry): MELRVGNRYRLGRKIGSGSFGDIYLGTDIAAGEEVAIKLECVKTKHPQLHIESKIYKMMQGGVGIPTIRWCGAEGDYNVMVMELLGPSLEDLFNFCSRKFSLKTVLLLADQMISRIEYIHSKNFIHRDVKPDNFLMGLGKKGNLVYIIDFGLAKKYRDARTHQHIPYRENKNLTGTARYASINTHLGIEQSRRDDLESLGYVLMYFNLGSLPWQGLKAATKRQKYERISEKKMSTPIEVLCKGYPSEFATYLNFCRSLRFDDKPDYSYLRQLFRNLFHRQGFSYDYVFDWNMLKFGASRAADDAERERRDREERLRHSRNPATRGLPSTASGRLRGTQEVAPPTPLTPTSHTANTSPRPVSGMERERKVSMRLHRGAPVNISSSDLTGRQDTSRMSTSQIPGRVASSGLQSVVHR
T1 sequence (P48730 whole entry): as above

A word on the IC50: it is the midpoint of a concentration-inhibition curve. Read a high IC50 as lower potency. One may read the EC50 as the midpoint of the concentration-response curve. The molecule `Cc1cc(-c2c(-c3ccc(F)cc3)nn3c2CN(C(=O)CCN(C)C)CC3)ccn1` [Compound I-6, 3-(dimethylamino)-1-(2-(4-fluorophenyl)-3-(2-methylpyridin-4-yl)-6,7-dihydropyrazolo[1,5-a]pyrazin-5(4H)-yl)propan-1-one] gave an IC50 against wild type CK1δ of 1030 nM. At CK1δ, this molecule yielded an EC50 of 7400 nM.

On wild type CK1δ, `Cc1cc(-c2c(-c3ccc(F)cc3)nn3c2CN(C(=O)C(F)(F)F)CC3)ccn1` [Compound I-16, 2,2,2-trifluoro-1-(2-(4-fluorophenyl)-3-(2-methylpyridin-4-yl)-6,7-dihydropyrazolo [1,5-a]pyrazin-5(4H)-yl)ethan-1-one] came in with an IC50 of 1700 nM. This molecule registered a concentration giving a half-maximal response (EC50) at CK1δ of 5200 nM.

In the case of `CS(=O)(=O)N1CCn2nc(-c3ccc(F)cc3)c(-c3ccnc(N)n3)c2C1` [Compound I-21, 4-(2-(4-fluorophenyl)-5-(methylsulfonyl)-4,5,6,7-tetrahydropyrazolo[1,5-a]pyrazin-3-yl)pyrimidin-2-amine.], on wild type CK1δ, the IC50 stood at 364 nM. This molecule also gave an EC50 at CK1δ of 400 nM.

What is called Papp A→B is the apparent permeability from the apical to the basolateral side of a cell layer. In general, Papp B→A refers to how fast a substance crosses the layer from the basolateral side. As usually defined, the efflux ratio is the permeability from basolateral to apical divided by that in the opposite direction, in the common usage. As to `CC(=O)Nc1cc(-c2c(-c3ccc(F)cc3)nn3c2CN(CCN(C)C)CC3)ccn1` [Compound I-50, N-(4-(5-(2-(dimethylamino)ethyl)-2-(4-fluorophenyl)-4,5,6,7-tetrahydropyrazolo [1,5-a]pyrazin-3-yl)pyridin-2-yl)acetamide], at CK1δ, the EC50 came out at 200 nM. Also, in the series “in vitro”, the Papp A→B at 2 h, 5 μM is 0.88 ×10⁻⁶ cm/s; the Papp B→A at 2 h, 5 μM was 22.4 ×10⁻⁶ cm/s; the efflux ratio at 2 h, 5 μM came out at 25.4. In series [1] (setting [3]), the microsomal CLint at 2 μM worked out at 13.5 µL/min/mg. Also, in series [1] (read-out: in vitro t1/2), the half-life at 2 μM stood at 1.71 h. In addition, the microsomal CLint at 2 μM in series [2] (setting [3]) was 35.1 µL/min/mg. The half-life at 2 μM in series [2] (read-out: in vitro t1/2) was found to be 0.658 h.

With `Nc1cc(-c2nn3c(c2-c2ccc(F)cc2)C(=O)NCC3)ccn1` [Compound I-64, 2-(2-aminopyridin-4-yl)-3-(4-fluorophenyl)-6,7-dihydropyrazolo[1,5-a]pyrazin-4(5H)-one], inhibition against wild type CK1δ was half-maximal at 334 nM (IC50). Moreover, the concentration for a half-maximal effect (EC50) on CK1δ is 700 nM.

The molecule `COc1ccc(/C=C/C(=O)Nc2cc(-c3c(-c4ccc(F)cc4)nn4c3CN(C(C)=O)CC4)ccn2)c(OC)c1` [Compound I-69, (E)-N-(4-(5-acetyl-2-(4-fluorophonyl)-4,5,6,7-tetrahydropyrazolo[1,5-a]pyrazin-3-yl)pyridin-2-yl)-3-(2,4-dimethoxyphenyl) acrylamide] showed an IC50 against wild type CK1δ of 37.4 nM. It took 300 nM to reach a half-maximal effect on CK1δ (EC50).

For `[2H]C([2H])([2H])c1cc(-c2c(-c3ccc(F)cc3)nn3c2CN(C(=O)CCN(C)C)CC3)ccn1` [Compound I-134, 3-(dimethylamino)-1-(2-(4-fluorophenyl)-3-(2-(methyl-d3)pyridin-4-yl)-6,7-dihydropyrazolo[1,5-a]pyrazin-5(4H)-yl)propan-1-one], it took 1790 nM to reach half-maximal inhibition at wild type CK1δ (IC50).
